# Measurements from US8293769B2, “CSF-1R inhibitors, compositions, and methods of use” (Novartis AG, priority 2008, dated 2012).
# How the values were obtained:
# [1] = tested on: MNFS60 (murine AML cells); assay: Cell viability assay in MCSF dependent MNFS60 cells (Cell Titer Glo); assay type: cell-based; conditions: Mus musculus; tested at about 1 μM; MCSF 10 ng/mL, 72 hrs; read-out: CPEC50 MNFS60MCSF percent inhibition
# Method in brief: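 MNFS60 cells, 5,000 per well in RPMI-1640/10% FBS, grown with 10 ng/mL MCSF and 3-fold compound dilutions for 72 h at 37 °C. Viable cells measured by CellTiter-Glo luminescence, triplicates; EC50 fitted, with MCSF-free wells as 100% inhibition.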
# [2] = biological target: T1, full-length human CSF-1R receptor (Homo sapiens, UniProt P07333); assay: In vitro inhibition of CSF-1R receptor tyrosine phosphorylation in transfected HEK293H cells; assay type: cell-based; conditions: HEK293-H, tested at about 1 μM, 50 ng/mL MCSF, read-out: PCSF1R percent inhibition
# T1 construct: transfected with the full-length human CSF-1R receptor cloned in house; expressed in transfected cells; host or cells: HEK293H (Invitrogen Cat. #11631017)
# T1 sequence (P07333 20-972): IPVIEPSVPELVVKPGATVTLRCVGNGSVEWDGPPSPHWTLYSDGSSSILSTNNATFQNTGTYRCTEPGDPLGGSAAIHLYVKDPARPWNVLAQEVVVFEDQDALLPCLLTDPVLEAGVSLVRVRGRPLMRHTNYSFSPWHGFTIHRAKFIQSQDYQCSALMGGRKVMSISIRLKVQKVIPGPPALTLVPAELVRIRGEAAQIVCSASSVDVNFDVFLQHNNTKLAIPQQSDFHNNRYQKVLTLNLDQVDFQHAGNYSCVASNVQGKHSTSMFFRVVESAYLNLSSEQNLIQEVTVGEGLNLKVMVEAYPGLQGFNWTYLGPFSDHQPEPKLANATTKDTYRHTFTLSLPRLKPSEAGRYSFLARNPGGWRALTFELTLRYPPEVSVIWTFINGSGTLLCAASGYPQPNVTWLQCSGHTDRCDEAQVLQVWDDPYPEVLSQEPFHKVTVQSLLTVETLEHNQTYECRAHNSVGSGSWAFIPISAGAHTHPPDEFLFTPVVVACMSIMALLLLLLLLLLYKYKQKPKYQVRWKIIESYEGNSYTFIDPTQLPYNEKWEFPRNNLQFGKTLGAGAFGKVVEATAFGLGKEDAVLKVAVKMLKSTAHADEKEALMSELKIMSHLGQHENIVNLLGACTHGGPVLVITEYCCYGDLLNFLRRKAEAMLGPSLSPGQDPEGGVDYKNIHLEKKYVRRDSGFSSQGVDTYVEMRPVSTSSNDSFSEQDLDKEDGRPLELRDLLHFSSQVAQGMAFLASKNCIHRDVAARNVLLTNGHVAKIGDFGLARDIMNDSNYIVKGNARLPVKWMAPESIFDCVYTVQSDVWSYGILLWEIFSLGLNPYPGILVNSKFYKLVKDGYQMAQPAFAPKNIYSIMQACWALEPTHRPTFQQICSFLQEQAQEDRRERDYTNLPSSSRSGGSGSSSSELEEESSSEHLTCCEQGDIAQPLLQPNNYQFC
# Description: To test the inhibition of CSF-1R receptor tyrosine phosphorylation, HEK293H purchased from Invitrogen Cat. #11631017 cells transfected with the full-length human CSF-1R receptor cloned in house into mammalian episomal transfection vector were incubated for 1 h with serial dilutions of compounds starting at 10 μM with 3 fold dilutions and then stimulated for 8 min with 50 ng/mL MCSF. After the supernatant was removed, the cells were lysed on ice with lysis buffer (150 mM NaCl, 20 mM Tris, pH 7.5, 1 mM EDTA, 1 mM EGTA, 1% Triton X-100 and NaF, protease and phosphatase inhibitors) and then shaken for 15-20 min at 4° C. The lysate was then transferred to total CSF-1R antibody coated 96-well plates that had already been blocked with 3% Blocker A from Mesoscale discovery (MSD) for 2 hours and washed afterwards. Lysates were incubated overnight at 4° C. and the plates were then washed 4× with MSD Tris Wash Buffer. The SULFO-TAG anti-pTyr antibody from MSD was diluted to 20 nM final in 1% Blocker A (MSD) solution and added to the washed plates and incubated for 1.5-2 h before addition of read buffer (MSD). The plates were read on the Sector 6000 instrument (MSD). Raw data was imported in Abase and EC50s calculated with XL-fit data analysis software.
# [3] = biological target: T2, cytoplasmic domain of the human CSF-1R (Homo sapiens, UniProt P07333); assay: In vitro kinase assay for CSF-1R (AlphaScreen); assay type: biochemical; conditions: tested at about 1 μM; read-out: CSF1RK 1 percent inhibition
# T2 construct: Recombinant protein corresponding to the cytoplasmic domain of the human CSF-1R; purchased Invitrogen Corporation, Carlsbad, Calif; PV3249
# T2 sequence (P07333 539-972 limits assumed): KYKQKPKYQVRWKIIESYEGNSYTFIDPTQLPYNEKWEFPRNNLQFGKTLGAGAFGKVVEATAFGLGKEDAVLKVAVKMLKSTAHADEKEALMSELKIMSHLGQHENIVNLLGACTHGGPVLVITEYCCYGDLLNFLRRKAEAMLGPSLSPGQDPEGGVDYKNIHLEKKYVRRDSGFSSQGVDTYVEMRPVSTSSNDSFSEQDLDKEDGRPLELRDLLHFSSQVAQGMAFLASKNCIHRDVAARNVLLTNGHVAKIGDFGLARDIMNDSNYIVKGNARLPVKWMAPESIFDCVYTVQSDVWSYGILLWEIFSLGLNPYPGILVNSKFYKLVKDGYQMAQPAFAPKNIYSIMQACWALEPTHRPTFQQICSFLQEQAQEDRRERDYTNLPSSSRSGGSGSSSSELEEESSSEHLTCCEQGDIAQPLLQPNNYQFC
# Method in brief: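 Recombinant CSF-1R cytoplasmic domain (4 nM) phosphorylated biotinylated peptide (0.05 μM) at 1.0 μM ATP in HEPES with Mg2+/Mn2+, 2 h at room temperature, compounds from 25 μM in 3-fold steps. AlphaScreen anti-phosphotyrosine PT66 detection; IC50 by non-linear regression.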
# [4] = biological target: T3, PDGFRb (Homo sapiens, UniProt P09619); assay: PDGFRb kinase in vitro biochemical assay (alphascreen); conditions: tested at about 1 μM; read-out: PDGF RK BETA percent inhibition
# T3 construct: The kinase domain of PDGFRβ was assayed in 50 mM Hepes; purchased Invitrogen P3082
# T3 sequence (P09619 600-962 limits assumed): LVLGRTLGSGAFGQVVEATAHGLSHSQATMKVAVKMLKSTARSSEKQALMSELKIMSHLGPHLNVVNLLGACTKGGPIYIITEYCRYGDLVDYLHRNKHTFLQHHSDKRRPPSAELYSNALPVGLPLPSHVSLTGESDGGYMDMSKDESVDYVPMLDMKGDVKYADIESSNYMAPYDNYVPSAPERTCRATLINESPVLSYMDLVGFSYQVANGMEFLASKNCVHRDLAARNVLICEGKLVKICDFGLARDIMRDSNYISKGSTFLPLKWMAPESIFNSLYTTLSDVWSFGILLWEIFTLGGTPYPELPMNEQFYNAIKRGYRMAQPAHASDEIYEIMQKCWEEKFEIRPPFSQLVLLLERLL
# [5] = biological target: T4, cKIT (Homo sapiens, UniProt P10721); assay: cKIT kinase in vitro biochemical assay (alphascreen); conditions: tested at about 1 μM; read-out: CKIT percent inhibition
# T4 construct: The kinase domain of cKIT was assayed in 50 mM Hepes; purchased Upstate 14-559
# T4 sequence (P10721 589-937 limits assumed): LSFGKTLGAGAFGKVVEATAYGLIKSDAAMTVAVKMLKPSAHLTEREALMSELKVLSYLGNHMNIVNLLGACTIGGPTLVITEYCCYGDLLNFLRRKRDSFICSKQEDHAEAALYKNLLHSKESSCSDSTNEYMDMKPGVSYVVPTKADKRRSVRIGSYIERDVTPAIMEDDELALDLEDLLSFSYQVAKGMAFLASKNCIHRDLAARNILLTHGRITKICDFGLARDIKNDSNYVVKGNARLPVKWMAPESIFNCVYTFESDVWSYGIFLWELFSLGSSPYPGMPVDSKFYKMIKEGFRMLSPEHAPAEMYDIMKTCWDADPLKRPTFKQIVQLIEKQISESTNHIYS
SMILES,inhibition at 1 µM [1],inhibition at 1 µM [2],inhibition at 1 µM [3],inhibition at 1 µM [4],inhibition at 1 µM [5]
"O[C@@H]1CCCC[C@H]1Nc1nc2ccc(Oc3ccnc(-c4cccnc4)n3)cc2s1 [Compound 27, (1R,2R)-2-(6-(2-(pyridin-3-yl)pyrimidin-4-yloxy)benzo [d]thiazol-2-ylamino) cyclohexanol]",54%,78%,100%,8%,20%
"O[C@@H]1CCCC[C@H]1Nc1nc2ccc(Oc3ccnc(-c4ccncc4)n3)cc2s1 [Compound 28, (1R,2R)-2-(6-(2-(pyridin-4-yl)pyrimidin-4-yloxy)benzo [d]thiazol-2-ylamino) cyclohexanol]",67%,88%,100%,25%,18%
"C[C@H](Nc1nc2ccc(Oc3ccnc(-c4cccnc4)n3)cc2s1)C1CCCCC1 [Compound 31, (S)-N-(1-cyclohexylethyl)-6-(2-(pyridin-3-yl)pyrimidin-4-yloxy)benzo[d] thiazol-2-amine]",58%,59%,100%,6%,29%
"C[C@H](Nc1nc2ccc(Oc3ccnc(-c4ccncc4)n3)cc2s1)C1CCCCC1 [Compound 32, (S)-N-(1-cyclohexylethyl)-6-(2-(pyridin-4-yl)pyrimidin-4-yloxy)benzo[d] thiazol-2-amine]",58%,70%,100%,14%,30%
"O[C@@H]1CCCC[C@H]1Nc1nc2ccc(Oc3cncc(Br)c3)cc2s1 [Compound 45, (1R,2R)-2-(6-(5-bromopyridin-3-yloxy)benzo[d]thiazol-2-ylamino)cyclohexanol]",96%,93%,100%,5%,60%
"Cn1nccc1-c1cncc(Oc2ccc3nc(N[C@@H]4CCCC[C@H]4O)sc3c2)c1 [Compound 56, (1R,2R)-2-(6-(5-(1-methyl-1H-pyrazol-5-yl)pyridin-3-yloxy)benzo[d]thiazol-2-ylamino)cyclohexanol]",93%,96%,100%,10%,43%
"O[C@@H]1CCCC[C@H]1Nc1nc2ccc(Oc3cncc(-c4cccnc4)c3)cc2s1 [Compound 57, (1R,2R)-2-(6-(3,3′-bipyridin-5-yloxy)benzo[d]thiazol-2-ylamino)cyclohexanol]",96%,96%,100%,0%,45%
"O[C@@H]1CCCC[C@H]1Nc1nc2ccc(Oc3cncc(-c4ccncc4)c3)cc2s1 [Compound 60, (1R,2R)-2-(6-(3,4′-bipyridin-5-yloxy)benzo[d]thiazol-2-ylamino)cyclohexanol]",97%,95%,100%,3%,52%
"Nc1ncc(-c2cncc(Oc3ccc4nc(N[C@@H]5CCCC[C@H]5O)sc4c3)c2)cn1 [Compound 63, (1R,2R)-2-(6-(5-(2-aminopyrimidin-5-yl)pyridin-3-yloxy)benzo[d]thiazol-2-ylamino) cyclohexanol]",61%,80%,100%,14%,35%
"O[C@@H]1CCCC[C@H]1Nc1nc2ccc(Oc3cncc(-c4ccc(F)cc4)c3)cc2s1 [Compound 64, (1R,2R)-2-(6-(5-(4-fluorophenyl)pyridin-3-yloxy)benzo [d]thiazol-2-ylamino) cyclohexanol]",100%,95%,100%,8%,54%
"Cn1ccnc1-c1cncc(Oc2ccc3nc(N[C@@H]4CCCC[C@H]4O)sc3c2)c1 [Compound 66, (1R,2R)-2-(6-(5-(1-methyl-1H-imidazol-2-yl)pyridin-3-yloxy)benzo[d]thiazol-2-ylamino) cyclohexanol]",90%,96%,100%,9%,40%
"Cn1cncc1-c1cncc(Oc2ccc3nc(N[C@@H]4CCCC[C@H]4O)sc3c2)c1 [Compound 68, (1R,2R)-2-(6-(5-(1-methyl-1H-imidazol-5-yl)pyridin-3-yloxy)benzo[d]thiazol-2-ylamino) cyclohexanol]",85%,93%,100%,21%,33%
CC(C)(C)OC(=O)N1CC=C(c2cncc(Oc3ccc4nc(N[C@@H]5CCCC[C@H]5O)sc4c3)c2)CC1 [Compound 79],93%,93%,100%,9%,48%
"O[C@@H]1CCCC[C@H]1Nc1nc2ccc(Oc3cncc(-c4cn[nH]c4)n3)cc2s1 [Compound 92, (1R,2R)-2-(6-(6-(1H-pyrazol-4-yl)pyrazin-2-yloxy)benzo [d]thiazol-2-ylamino) cyclohexanol]",70%,93%,100%,23%,27%
"O[C@@H]1CCCC[C@H]1Nc1nc2ccc(Oc3cncc(-c4cnn(CCN5CCOCC5)c4)n3)cc2s1 [Compound 95, (1R,2R)-2-(6-(6-(1-(2-morpholinoethyl)-1H-pyrazol-4-yl)pyrazin-2-yloxy)benzo[d]thiazol-2-ylamino)cyclohexanol]",47%,–,100%,8%,18%
"O[C@@H]1CCCC[C@H]1Nc1nc2ccc(Oc3cncc(-c4cccnc4)n3)cc2s1 [Compound 96, (1R,2R)-2-(6-(6-(pyridin-3-yl)pyrazin-2-yloxy)benzo[d]thiazol-2-ylamino) cyclohexanol]",32%,–,100%,9%,23%
"C[C@H](Nc1nc2ccc(Oc3ccc(NO)nc3)cc2s1)C1CCCCC1 [Compound 101, (S)—N-(1-cyclohexylethyl)-6-(6-(hydroxyamino)pyridin-3-yloxy)benzo[d]thiazol-2-amine]",58%,–,100%,31%,74%
"CN1CCN(c2ccc(-c3cc(Oc4ccc5nc(N[C@@H]6CCCC[C@H]6O)sc5c4)cnc3Cl)cn2)CC1 [Compound 103, (1R,2R)-2-(6-(2-chloro-6′-(4-methylpiperazin-1-yl)-3,3′-bipyridin-5-yloxy)benzo[d]thiazol-2-ylamino)cyclohexanol]",35%,–,100%,9%,14%
"O[C@@H]1CCCC[C@H]1Nc1nc2ccc(Oc3cccnc3)cc2s1 [Compound 110, (1R,2R)-2-(6-(pyridin-3-yloxy)benzo[d]thiazol-2-ylamino)cyclohexanol]",54%,–,100%,14%,10%
